Results on one compound are retold here after patent US20160206633A1, “dhS1P AND USE OF SAME AS AN ANTICANCER THERAPEUTIC AND IMMUNOMODULATOR” (Penn State Research Foundation, Inc., priority 2013, published 2016).

Molecules are shown by their SMILES.

Test [1] deals with murine Panc-02 pancreatic cancer cells. The test is described as follows: Injection of BSA-conjugated sphingolipids into mice with subcutaneous Panc-02 tumors. It is filed as in vivo. An excerpt:
(A) Splenic IMCs (Gr-1+CD11b+, also defined as MDSC: myeloid-derived suppressor cells) were isolated from subcutaneous human MDA-MB-231 breast tumor-bearing athymic nude mice, treated with or without dhS1P (to induce the expansion of CD19+CD45R B220+ cells: B-cells), and adoptively transferred into subcutaneous human MDA-MB-231 breast tumor-bearing athymic nude mice before monitoring tumor growth. ANOVA, **p<0.05 compared to PBS control, n≧6. (B) Splenic IMCs were isolated from orthotopic human BxPC-3 pancreatic tumor-bearing athymic nude mice, treated with or without dhS1P, and adoptively transferred into orthotopic human BxPC-3 pancreatic tumor-bearing athymic nude mice before monitoring survival. Logrank test, *p<0.05, n=5. (C) Tumor growth following BSA (lipid carrier control), sphingosine-1-phosphate (S1P), or dhS1P injection every other day, was monitored in C57BL/6J mice engrafted with subcutaneous murine Panc-02 pancreatic cancer cells. ANOVA, **p<0.05 compared to BSA control, n≧6.
Orthotopic pancreatic cancer and subcutaneous breast cancer tumors were established in athymic nude, NOD.CB17-Prkdcscid/J, BALB/cJ, or C57BL/6J mice as previously described (8, 9), with minor modifications. All cell lines used in animal and cellular studies, prior to any modification, were originally obtained from the American Type Culture Collection (Manassas, Va.). For orthotopic BxPC-3-GFP human pancreatic cancer xenografts, 4-6 week old female athymic mice were fully anesthetized with a mixture of ketamine-HCl (129 mg/kg) and xylazine (4 mg/kg) injected intramuscularly. A small incision was made in the left flank, the peritoneum was dissected and the pancreas exposed. Using a 27-gauge needle, 2.5×10^6 cells, prepared in 0.1 mL of Hank's balanced salt solution, were injected into the pancreas. For experimental lung-metastatic osteosarcoma xenografts, 4-6 week old female athymic nude mice were tail vein-injected with 2.5×10^6 human SAOS-2-LM7 cells. […] Tumor size was measured by caliper measurement. […]

The test system of a further test is isolated MDSC-like cells. The experiment in a line: Whole-genome RNA microarray of isolated MDSC-like cells after dhS1P. To be noted: 24 hours dhS1P vs vehicle (BSA); fold-change cut-off 1.2, p-value cut-off 0.05. It is filed as cell-based, athymic nude mice. Here is the method: To more closely evaluate the genetic consequences of the dhS1P-induced decrease in isolated MDSC-like cells and the increase in cells bearing the surface markers of B-cells, a RNA microarray analysis was conducted. MDSC-like cells were isolated from MDA-MB-231 tumor-bearing athymic nude mice, exposed for 24 hours to dhS1P or vehicle (BSA), followed by RNA extraction, and a whole-genome microarray was performed. As compared to vehicle-treated MDSC-like cells, dhS1P treatment of isolated MDSC-like cells altered the expression of a variety of genes.
Isolated MDSC-like cells were cultured for 24 hours in media containing BSA, or dhS1P ([…]), before collection and washing via centrifugation. […]
cDNA was purified according to standard procedures. cDNA was in vitro transcribed to synthesize cRNA using a MEGAscript kit (Ambion, Austin, Tex.). Samples were incubated with T7 10× reaction buffer, T7 Enzyme mix and Biotin-NTP mix at 37° C. for 14 hours. cRNA was purified according to instructions, and the yield was measured using a NanoDrop ND-1000 (NanoDrop Products, Wilmington, Del.). […] BeadChips were dried by centrifugation at 275×g for 4 minutes and subsequently scanned using a BeadArray Reader. […]

With `CCCCCCCCCCCCCCC[C@@H](O)[C@@H](N)COP(=O)(O)O` [dhS1P, dihydrosphingosine-1-phosphate], in test [1] (direct injections into pancreatic tumor-bearing mice), the Life expectancy entry is recorded as “improved”. Moreover, the Tumor growth entry in test [1] (subcutaneous Panc-02 in C57BL/6J mice, injection every other day, 0.1 mL of 100 μM, BSA carrier) was “therapeutic effect”. For the same compound, in the test on isolated MDSC-like cells, the “Number of significantly regulated genes” value worked out at 319.
